This is an account of results in ChEMBL document CHEMBL6182875, “Cinerols L-R, Anti-inflammatory Meroterpenoids from the Marine Sponge Dysidea cinerea” (J Nat Prod, 2025).

SMILES strings stand for the structures. Activity calls are given as the source filed them. No cut-off for these calls is given here.

In data set [1] the test system is RAW264.7. Kind of data set: Cytotoxicity against mouse RAW264.7 cells assessed as effect on cell viability at 2.5 to 20 uM measured after 24 hrs by CCK8 assay. It is filed as toxicity, cell-based. The following applies: raw264.7, 24 h, dose 2.5-20 µM. Background: Tetrazolium dyes change colour on reduction, which living cells bring about.
Data set [2] concerns RAW264.7. As to the kind of experiment: Antiinflammatory activity against mouse RAW264.7 cells assessed as inhibition of LPS-induced COX-2 protein expression at 2.5 to 5 uM pretreated for 1 hr followed by LPS stimulation for 25 mins by western blot analysis. It is filed as functional, cell-based. To be noted: dose 2.5-5 µM, time 85.0 min. On the technique in general: In western blotting, separated proteins are transferred to a membrane and probed.

Data set [3] has as its system RAW264.7. As to the kind of experiment: Inhibition of MAPK signaling pathway in mouse RAW264.7 cells assessed as decrease in JNK phosphorylation at 2.5 to 5 uM pretreated for 1 hr followed by LPS stimulation for 25 mins by western blot analysis. It is filed as cell-based. To be noted: dose 2.5-5 µM, time 85.0 min.
The subject of data set [4] is RAW264.7. Kind of data set: Inhibition of MAPK signaling pathway in mouse RAW264.7 cells assessed as decrease in ERK1/2 phosphorylation at 2.5 to 5 uM pretreated for 1 hr followed by LPS stimulation for 25 mins by western blot analysis. The class given is cell-based. The following applies: dose 2.5-5 µM, time 85.0 min.
For data set [5], the system named is RAW264.7. As to the kind of experiment: Antiinflammatory activity against mouse RAW264.7 cells assessed as inhibition of LPS-induced TNF-alpha production pretreated for 2 hrs followed by LPS stimulation for 24 hrs by ELISA. It is filed as functional, cell-based. To be noted: dose 2.5-20 µM, time 26.0 hrs. (ELISA stands for enzyme-linked immunosorbent assay.)

For data set [6], the system named is RAW264.7. As to the kind of experiment: Inhibition of MAPK signaling pathway in mouse RAW264.7 cells assessed as decrease in p38 phosphorylation at 2.5 to 5 uM pretreated for 1 hr followed by LPS stimulation for 25 mins by western blot analysis. The class given is cell-based. To be noted: dose 2.5-5 µM, time 85.0 min.
Data set [7] deals with RAW264.7. Kind of data set: Inhibition of NF-kappaB signaling pathway in mouse RAW264.7 cells assessed as decrease in IkappaBalpha phosphorylation at Ser32 residue at 2.5 to 5 uM pretreated for 1 hr followed by LPS stimulation for 25 mins by western blot analysis. It is filed as cell-based. To be noted: dose 2.5-5 µM, time 85.0 min.
The subject of data set [8] is RAW264.7. Kind of data set: Antiinflammatory activity against mouse RAW264.7 cells assessed as inhibition of LPS-induced PGE2 production pretreated for 2 hrs followed by LPS stimulation for 24 hrs by ELISA. The class given is functional, cell-based. The following applies: dose 2.5-20 µM, time 26.0 hrs.
Data set [9] deals with RAW264.7. As to the kind of experiment: Inhibition of NF-kappaB signaling pathway in mouse RAW264.7 cells assessed as decrease in NF-kappaB p65 phosphorylation at Ser536 residue at 2.5 to 5 uM pretreated for 1 hr followed by LPS stimulation for 25 mins by western blot analysis. It is filed as cell-based. To be noted: dose 2.5-5 µM, time 85.0 min.
Data set [10] deals with RAW264.7. As to the kind of experiment: Antiinflammatory activity against mouse RAW264.7 cells assessed as inhibition of LPS-induced IL-6 production pretreated for 2 hrs followed by LPS stimulation for 24 hrs by ELISA. The class given is functional, cell-based. The following applies: dose 2.5-20 µM, time 26.0 hrs.
For data set [11], the system named is RAW264.7. Kind of data set: Antiinflammatory activity against mouse RAW264.7 cells assessed as inhibition of LPS-induced NO production pretreated for 2 hrs followed by LPS stimulation for 24 hrs by ELISA. The class given is functional, cell-based. To be noted: dose 2.5-20 µM, time 26.0 hrs.

Consider `C[C@H]1CC[C@@]2(C)[C@@H](CC[C@@H](O)[C@@]2(C)O)[C@]1(C)Cc1cc(O)cc2nc3n(c12)CCC3`, for which the Activity result in [1] is recorded as “Non-toxic”.
Consider `CC1=CCC[C@H]2[C@](C)(Cc3cc4c(cc3O)[n+](CCS(=O)(=O)[O-])c3n4CCC3)[C@@H](C)CC[C@]12C`, for which, in data set [1], the Activity result is reported as “Non-toxic”.
As for `C=C1CCC[C@H]2[C@](C)(Cc3cc(O)cc(C(C)=O)c3O)[C@@H](C)CC[C@]12C`, the result in [2] was Active. In addition, the Activity entry was “Non-toxic” in [1]; “Dose-dependent-effect” in data set [5]; “Dose-dependent-effect” in [8]; “Dose-dependent-effect” in data set [10]; “Dose-dependent-effect” in [11]. The inhibition entry in data set [3], in [4], in data set [6], in data set [7] and in data set [9] was “Active” throughout.
For `CC1=CCC[C@H]2[C@](C)(CC3=CC(=O)C=C(N(C)CCO)C3=O)[C@@H](C)CC[C@]12C`, the Activity result in data set [1] is on record as “Non-toxic”.
Still for that read-out and setting: with `CC(=O)c1cc(O)cc(C[C@]2(C)[C@@H](C)CC[C@]3(C)C(C)=CCC[C@@H]23)c1O` the entry was “Non-toxic”; with `CC1=CCC[C@H]2[C@](C)(CC3=CC(=O)C=C(NCCO)C3=O)[C@@H](C)CC[C@]12C`, “Non-toxic”.
On to `CC1=CCC[C@H]2[C@](C)(CC3=CC(=O)C(NCCO)=CC3=O)[C@@H](C)CC[C@]12C`, for which the Activity entry in data set [1] was “Non-toxic”.
